Test results reported in patent US4845292A, “Hydroxy containing amines as phospholipase A2 inhibitors” (American Home Products Corporation, priority 1988, dated 1989).
Counter-ions that a name gives are not always drawn.

What was measured:
human platelet PLA2 = biological target: T1, human platelet PLA2 (Homo sapiens, UniProt P14555); assay: Inhibition of cell free human platelet PLA2 (hydrolysis of [3H]-AA labelled E. coli phospholipids); type: biochemical; details: Table 1; compounds of the invention; human platelet PLA2, pH 7.4, 37° C., 30 minutes
T1 sequence (P14555 21-144): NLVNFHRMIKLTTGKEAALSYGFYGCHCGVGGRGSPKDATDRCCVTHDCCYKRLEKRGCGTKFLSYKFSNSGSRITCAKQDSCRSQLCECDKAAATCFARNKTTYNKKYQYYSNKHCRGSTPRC
Protocol: The ability of the compounds of the invention to inhibit the activity of cell free human platelet PLA2 enzyme is measured in the following in vitro assay.
(§1) The assay is carried out as follows:
E. coli, cultured to exponential growth, are sedimented for 15 minutes at 10,000 g and resuspended in sterile isotonic saline (1-3 ml). 10-25 μCi uniformly labeled [^3 H]-arachidonic acid (AA) is added to a sterile flask, evaporated by N2 and resolubilized with 0.3 ml 20% fatty acid-free bovine serum albumen (BSA). 75-100 ml of nutrient broth and 1 ml E. coli are then added to each flask and incubated for 2-3 hours at 37° C. [^3 H]-AA labelled E. coli are then sedimented, suspended in saline and added to fresh nutrient broth and incubated for 1.5 hours at 37° C. to complete [^3 H]-AA incorporation into the phospholipids. After overnight refrigeration of cultures, E. coli are again sedimented, suspended in saline and autoclaved for 15 minutes at 120° C. E. coli cultures are washed twice with saline (first wash contains 1% BSA) and resuspended in saline. Non-labelled E. coli cultures are also prepared in the same manner. Cell number is determined by measuring the optical density at 550 nm ([…]=1 O.D.). The amount of radioactivity associated with cells is determined by counting a defined volume of cell suspension. The specific activity is subsequently adjusted by adding non-labelled E. coli to yield 10,000 cpm/10 […] of E. coli/25 ml.
Platelet PLA2 Preparation
Expired human platelets from the blood bank are centrifuged for 15 minutes at 200 g to obtain a platelet rich fraction and to remove the red blood cells. Platelets are sedimented for 15 minutes at 2500 g and the plasma is removed before adding cold 0.18N H2 SO4 (4ml/unit). Platelets are homogenized, incubated for 1 hour at 4° C., homogenized again and centrifuged for 15 minutes at 10,000 g. The PLA2 enriched supernatant fluid is removed and the amount of protein is determined by the Lowry method. The preparation is divided into various portions and stored at -20° C.
The assay measures the hydrolysis of E. coli membrane phospholipids via the release of free [^3 H]-AA from the C-2 position of phospholipids by human platelet PLA2. To ice cold 15×100 mm test tubes, the following additions are made; 2.5×10^8 E. coli (equivalent to 5 nmol phospholipid), 5 mM Ca^++, 100 mM Tris buffer (pH=7.4), 100 μg platelet extract (or an amount to produce 20-30% hydrolysis), drug or vehicle. Incubations are carried out at 37° C. in a shaking water bath for 30 minutes. The reaction is terminated by the addition of 2 volumes of tetrahydrofuran (THF) and the mixture is vortexed. Hydrolyzed [^3 H]-AA is separated from unhydrolyzed phospholipid by solid phase extraction using Bond elute NH2 columns (Analytichem Internat.). Columns are conditioned with 0.5 ml THF followed by 0.5 ml THF:H2 O (2.0:0.1 ml/v/v). Samples are loaded onto columns and hydrolyzed [^ 3 H]-AA is eluted with 1 ml THF:glacial acetic acid (98.0:2.0 ml v/v). The eluant is transferred to vials, 10 ml Optifluor is added and the radioactivity is determined by liquid scintillation counting.
Treatments are corrected for non-enzymatic hydrolysis by subtracting the dpms in treatments containing no enzyme Mean [^3 H]-AA dpm is determined and a percent inhibition relative to vehicle treated samples is calculated.
The percent hydrolysis is calculated by the following equation: [formula]

[1] = system: rat carrageenan paw edema; assay: Rat carrageenan paw edema; type: in vivo, rat (Sprague-Dawley); details: for ED50: Rattus norvegicus, po, 3 h, read-out: Oral ED50 (95% C.L.); for % Inhibition at 50 mg/kg (peroral): Table 5, 1 hour prior to carrageenan, edema at 3 hours
Protocol: The compounds in the scope of the invention are further tested in the rat carrageenan paw edema to determine their ability to inhibit the acute inflammatory response. This assay is carried out as follows: […] male Sprague-Dawley rats, in groups of 6 animals are injected subcutaneously in the right paw with 0.1 ml of 1% carrageenan at zero time. Mercury plethysmographic readings (ml) of the paw are made at zero times and 3 hours later. Test compounds are suspended or dissolved in 0.5% methylcellulose and given perorally 1 hour prior to carrageenan administration. The increase in paw volume (edema in ml.) produced by the carrageenan is measured. […] Unpaired Student's t-test is used to determine statistical significance.

[2] = system: synthesis of TxB2 by rat glycogen-elicited polymorphonuclear leukocytes; assay: Inhibition of synthesis of the cyclooxygenase product TxB2 (procedure of Example 7); type: cell-based; details: Leukocyte, rat PMN, A23187 stimulated; for inhibition at 10 µM: Table 3, at 10 μM
Protocol: (§2) Rat polymorphonuclear leukocytes (PMNs) are obtained from female Wistar rats (150.200 g) which receive an injection of 6% glycogen (10 ml i.p.). Rats are sacrificed 18-24 hours post injection by CO2 asphyxiation and the elicited cells are harvested by peritoneal lavage using physiological saline (0.9% NaCl). The exudate is centrifuged at 400×g for 10 minutes. The supernatant fluid is discarded and the cell pellet is resuspended to a concentration of 2.0×10^7 cells/ml in HBSS containing Ca^++ and Mg^++ and 10 μM L-cysteine.
(§3) To 1 ml aliquots of cell suspension, test drugs or vehicle are added, then preincubated at 37° C. for 10 minutes. A23187 (1 μM), [^3 H]-AA (3.0 μCi/ml) and unlabeled AA (1 μM) are then added and the samples are further incubated for 10 minutes. The reaction is terminated by centrifugation and pelleting cells. Supernatants are then analyzed by HPLC analysis on a 15 cm×4.6 mm ID Supelcosil LC-18 (Supelco)(3M) column, using a two solvent system at a flow rate of 1.4 ml total flow as follows:
(§4) Injections: 150 μl of each supernatant is injected directly onto column and ^3 H arachidonic acid metabolites are monitored using an on-line radioactivity detector (Ramona, IN/US, Fairfield, NJ).
(§5) Results are expressed as percent inhibition at a given compound dose.
In this assay, the procedure of Example 7 is carried out as described. However, in order to determine cyclooxygenase activity, the samples are co-chromatographed with authentic reference [^3 H]-TxB2.
The results are calculated as in Example 7 and presented below: […]

[3] = system: synthesis of LTB4 by rat glycogen-elicited polymorphonuclear leukocytes (PMN); assay: Inhibition of LTB4 synthesis by rat glycogen-elicited polymorphonuclear leukocytes in the presence of exogenous substrate; type: cell-based; details: Leukocyte, A23187 stimulated; for inhibition at 10 µM: Table 2, at 10 μM
Excerpt: This is especially true with respect to 5,12-diHETE, which is also denoted as LTB4 [see Ford-Hitchinson, J. Roy. Soc. Med., 74, 831 (1981)]. Compounds which inhibit the PLA2 -mediated release of arachidonic acid thereby effectively prevent the oxidation of arachidonic acid to the various leukotriene products via the lipoxygenase cascade. Accordingly, the specificity of action of PLA2 inhibitors can be determined by the activity of test compounds in this assay, which measures the ability of compounds to inhibit the synthesis of LTB4 by rat glycogen-elicited polymorphonuclear leukocytes (PMN) in the presence of exogenous substrate.
as §1, §2, §3
Gradient: (system is equillibrated with Solvent A)
Percent solvent changes are accomplished in a linear fashion.
as §4
Standards: 10^4 -2.0×10^4 dpm of eicosanoids of interest are injected in 90 μl EtOH cocktail.
Co-chromatography with standard [^3 H] leukotriene B4 (LTB4) in medium of stimulated PMN exposed to drug is compared to that found in medium of stimulated cells exposed to no drug, generating percent inhibition.
as §5

Row | Structure (SMILES) | IC50 (human platelet PLA2) | ED50 [1] | % Inhibition at 50 mg/kg (peroral) [1] | inhibition at 10 µM [2] | inhibition at 10 µM [3] | inhibition at 5 µM ([2]; Table 3, at 5 μM) | inhibition at 5 µM ([3]; Table 2, at 5 μM)
1 | COC(=O)C1CCCN1CCCCCCCCCCCOc1ccccc1 (racemic) [Example 3b, 1-(11-Phenoxyundecyl)-DL-proline methyl ester, hydrochloride] | 63 µM |  |  |  |  |  | 
2 | CC(=O)Oc1ccccc1C(=O)O [Aspirin, reference compound] |  | 145 mg/kg |  |  |  |  | 
3 | CCCCCCCCCCCCCCCCCCNC(CO)CCCC.Cl (centres unmarked) [Example 1, 2-(Octadecylamino)-1-hexanol, hydrochloride] | 12 µM |  | 26% | 26% | 24% |  | 
4 | CCCCC(CO)NCCCCCCCCCCc1ccccc1.Cl (centres unmarked) [Example 2a, 2-[(10-Phenyldecyl)amino]-1-hexanol, hydrochloride] | 19 µM |  | 39% | 73% | 89% |  | 
5 | CCCC[C@@H](CO)NCCCCCCCCc1ccccc1.Cl [Example 2b, (S)-2[(8-Phenyloctyl)amino]-1-hexanol, hydrochloride] | 45 µM |  | 25% |  |  | 0% | 52%
6 | CCCCC(CO)NCCCCCCc1ccccc1.Cl (centres unmarked) [Example 2c, 2-[(6-Phenylhexyl)amino]-1-hexanol, hydrochloride] | > 100 µM |  | 34% | 24% | 16% |  | 
7 | Cl.OC[C@@H]1CCCN1CCCCCCCCCCCOc1ccccc1 [Example 3a, (S)-1-(11-phenoxyundecyl)-2-pyrrolidinemethanol, hydrochloride] | 17 µM |  | 26% | 37% | 0% |  | 
8 | CCOC(CNCCCCCCCCCCCOc1ccccc1)OCC.Cl [Example 4, N-(2,2-diethoxyethyl)-11-phenoxyundecanamine, hydrochloride] | 33 µM |  | 34% |  |  |  | 
9 | OC[C@H](Cc1ccc(O)cc1)NCCCCCCCCCCc1ccccc1 [Example 5, (S)-4-hydroxy-α-[(10-phenyldecyl)amino]benzenepropanol, hydrochloride] | 48 µM |  |  |  |  |  | 
10 | COc1ccc2c(c1)c(CC(=O)O)c(C)n2C(=O)c1ccc(Cl)cc1 [Indomethacin, reference compound] |  | 3.7 mg/kg |  |  |  |  | 
